US20120053119A1, “THERAPEUTIC METHOD FOR INCREASING PANCREATIC BETA CELL MASS” (priority 2009, published 2012)

Key:
Type in all cases: cell-based
Wnt signaling [1] = assay: Wnt signaling reporter (beta-galactosidase) in isolated islets of TopGal mouse; conditions: SDF-1 1 nM, isolated TopGal mouse islets
Source text: A. Isolated islets express reporter-driven beta-galactosidase. The dark regions mark the expression of beta-galactosidase, an indicator of the activation of the Wnt signaling reporter LacZ transgene. […] B. Polymerase chain reaction showing changes in beta-galactosidase mRNA levels in islets shown in panel A.
Isolated mouse pancreatic islets Mouse islets were isolated (Lacy PE (1994) Pancreatic islet cell transplant. Mt Sinai J. Med. 61:23-31.) from the pancreata of TopGal reporter mice transgenic for the LEF-LacZ Wnt signaling reporter (DasGupta R, Fuchs E (1999) Development. 1999 126:4557-4568.). Freshly isolated islets were treated for 4 hrs with SDF-1 with and without the addition of the Galphai/o inhibitor pertussis toxin (PTX) or the CXCR4 antagonist AMD3100. Betagalactosidase activity was determined by incubation of the islets with X-gal for 6 hrs.
Polymerase chain reaction analyses of betagalactosidase mRNA levels in isolated mouse islets Islets from TopGal mice were harvested after treatments with SDF-1, SDF-1+AMD3100, and SDF-1+pertussis toxin. RNA was extracted and beta galactosidase mRNA levels were measured by PCR using a SYBR Green QPCR kit (Stratagene) with the primers as described in Liu Z, Habener J F 2008 Glucagon-like Peptide-1 Activation of TCF7L2-dependent Wnt Signaling Enhances Pancreatic Beta Cell Proliferation. […]

Wnt signaling [2] = assay: Wnt signaling luciferase reporter assay (TOPflash/FOPflash) in INS-1 cells; conditions: dose response
Procedure: Wnt signaling is indicated by the value of TOPflash luciferase activity divided by FOPflash activity. A. Time course of the TOPflash:FOPflash ratio of INS-1 cell treated with 1 nM SDF-1. B. Ratio of TOPflash to FOPflash activity in INS-1 cells treated with increasing doses of SDF-1. C. […] All values are relative to the value of the untreated INS-1 cells. Data are normalized for transfection efficiency by co-transfected beta-galactosidase and represent means±S.D. of three experiments.
All values are relative to the first (leftmost) bar. Statistical significance is depicted as * (p<0.05) when compared with control values (leftmost bar). Data are normalized for transfection efficiency by co-transfected beta-galactosidase and represent means±S.D. of three experiments.
Wnt Signaling Luciferase Reporter Assay (TOPflash) INS-1 cells were plated into 24-well dishes 24 hr before transfection with TOPflash or the mutant, control reporter, FOPflash (1 microg/well) using LipofectAMINE2000 (Invitrogen). Various concentrations of SDF-1 or AMD3100 were then added to the culture medium 24 h following transfection for the indicated period of time. In studies in which inhibitors were used, LY294002 (50 microM), PD98059 (10 microM) or SH-5 (10 nM) were added concomitantly with SDF-1. In studies in which wild-type (wt), dominant-negative (dn) or contitutively-active (ca) forms of kinase were used, dnTCF7L2, dnGSK3beta, caGSK3beta, dnAkt, or caAkt (0.5 microg/well) was cotransfected with TOPflash. Luciferase activity in transfected cells was determined with a luciferase assay kit (Promega).
We examined SDF-1 induction of Wnt signaling using a Wnt signaling reporter assay (TOPflash/FOPflash). The TOPflash and FOPflash constructs contain the luciferase reporter either under the control of consensus TCF7L2-binding sites or mutated TCF7L2-binding sites, respectively. Luciferase activity was measured during 4 hr after addition of 1 nM SDF-1 (FIG. 3A).

INS-1 or MIN6 cells = assay: Thapsigargin-induced apoptosis, caspase-3 activity assay; conditions: SDF-1 10 nM with thapsigargin 1 microM, 16 h
Procedure: (§1) FIG. 6. Inhibition of apoptosis by SDF-1 in INS-1 and MIN-6 cells is reversed by knock-down of betacatenin. A. Western blot analysis of extracts from MIN6 cells that were mock treated, thapsigargin-treated (1 μM) and/or siRNA transfected (0.25 mg/ml), by using anti-serum against cleaved caspase-3 (upper panel), anti-serum against cleaved PARP (middle panel) and actin antibody (lower panel) as a loading control. B. Caspase-3 activity (fluorescence/mg proteinx105) of INS-1 or MIN6 cells mock treated, thapsigargin-treated (1 μM) and/or siRNA transfected (0.25 mg/ml). Results are presented as mean±SD for n=3 independent experiments, All values are relative to the first (leftmost) bar. […] Quantification of apoptotic cells is expressed as percent apoptotic cells relative to the total cells counted (lower left panel). […]
(§2) Thapsigargin-induced apoptosis in INS-1 or MIN6 cells For western immuoblot assay (Cell Signaling), MIN6 cells were seeded into 6 well plates then treated with 1 microM thapsigargin or DMSO control for 16 h and apoptotic activity was measured by Western immunoblotting using antisera specific for cleaved (active) caspase-3 (Cell signaling #9661) and cleaved (active) PARP (Cell signaling #9548). For caspase-3 assay, INS-1 cells or MIN-6 cells in 24-well plates were treated with 1 microM thapsigargin or DMSO for 16 hand caspase-3 activity was determined (Molecular Probes). […]

MIN6 cells = assay: Thapsigargin-induced apoptosis, Western immunoblot of cleaved caspase-3 and cleaved PARP; conditions: SDF-1 10 nM with thapsigargin 1 microM, 16 h
Procedure: as §1, §2

INS-1 cells [3] = assay: Thapsigargin-induced apoptosis, TUNEL staining; conditions: co-incubation with SDF-1
Procedure: (§3) FIG. 6. Inhibition of apoptosis by SDF-1 in INS-1 and MIN-6 cells is reversed by knock-down of betacatenin. A. Western blot analysis of extracts from MIN6 cells that were mock treated, thapsigargin-treated (1 μM) and/or siRNA transfected (0.25 mg/ml), by using anti-serum against cleaved caspase-3 (upper panel), anti-serum against cleaved PARP (middle panel) and actin antibody (lower panel) as a loading control. B. Caspase-3 activity (fluorescence/mg proteinx105) of INS-1 or MIN6 cells mock treated, thapsigargin-treated (1 μM) and/or siRNA transfected (0.25 mg/ml). Results are presented as mean±SD for n=3 independent experiments, All values are relative to the first (leftmost) bar. Statistical significance is depicted as * (p<0.05) when compared with control values (leftmost bar) and # (<0.05) when compared with […] thapsigargin treatment. C. Representative images are shown for TUNEL staining of INS-1 cells of n=3 independent experiments. Quantification of apoptotic cells is expressed as percent apoptotic cells relative to the total cells counted (lower left panel). […]
DAPI (nuclei fluorescence) and TUNEL staining For the terminal deoxynucleotidyl transferase mediated dUTP nick end labeling (TUNEL) assay, cells seeded in 4-well chamber slides (Lab-Tak) were treated with thapsigargin and TUNEL assay performed (DeadEnd™ Fluorimetric TUNEL System kit, Promega). […]

INS-1 cells [4] = assay: Cell proliferation assay, BrdU incorporation; conditions: SDF-1 10 nM overnight
Procedure: as §3
Cell Proliferation Assay Proliferation of INS-1 cells was determined by incorporation of BrdU into newly synthesized DNA of proliferating cells. […] BrdU staining was measured by the DELFIA cell proliferation kit (Perkin Elmer).

INS-1 cells [5] = assay: MTT assay of cell growth; conditions: serum starved, SDF-1 10 nM, 48 hr
Procedure: as §3, with “panel). D. The proliferation rates of INS-1 cells after SDF-1 or Exd4 treatment are presented as relative BrdU and MTT incorporation values compared to that of control treated cells.” for “panel).”
MTT Assay Growth of INS-1 cells was determined by the MTT system. […]

PDX-1 = PDX-1 mRNA by RT-PCR in alphaTC-1 cells; conditions: SDF-1 10 nM, by 12 hours
Procedure: FIG. 22. SDF-1 induces the expression of PDX-1 in alphaTC-1 cells. PDX-1 mRNA is induced by 12 hours after the addition of SDF-1 (10 nM), determined by RT-PCR. M=marker lane.

INS-1 cells [6] = assay: ATP-lite cell viability assay, serum deprivation, SDF-1 with AMD3100; conditions: serum-free medium, SDF-1 2 nM, day 6
Procedure: ATP lite cell viability assay: INS-1 cells were plated in 96 well plates. SDF-1 (2 nM) and AMD3100 were added at day 0, 2, 4 and cell viability was measured at day 6 using relative light units (RLU) as compared to control. N=6.
INS-1 cells were plated in 96 well plates in control medium (no serum) or a medium containing 2% serum. SDF-1 (2 nM) and SDF-1 (2 nM) along with various concentrations of AMD3100 (2 uM, 0.4 uM, 80 nM, 16 nM) were added to different cell groups incubated in serum-free medium at days 0, 2, 4, and cell viability was measured at day 6 using relative light units (RLU) as compared to control.

For “SDF-1: small, secreted 70 amino acid peptide chemokine, SEQ ID NO: 1, ligand of CXCR4”, the “activation of Wnt signaling (beta-galactosidase) in TopGal islets” value (Wnt signaling [1]) was “activates Wnt signaling”, the “SDF-1 concentration giving maximum Wnt signaling response (TOPflash/FOPflash)” value (Wnt signaling [2]) was 0.4 nM and the “effect on thapsigargin-induced caspase-3 activity (proapoptotic effect)” value (INS-1 or MIN6 cells) was “attenuated”. The “effect on thapsigargin-increased levels of cleaved caspase-3 and PARP” value (MIN6 cells) was “inhibited”, the “effect on thapsigargin-increased number of TUNEL positive cells” value (INS-1 cells [3]) was “inhibited” and the “effect on proliferation of INS-1 cells, BrdU incorporation” value (INS-1 cells [4]) was “no detectable effects”. For the same substance, the “effect on proliferation of INS-1 cells, MTT assay” value (INS-1 cells [5]) was “no detectable effects”, the “PDX-1 mRNA expression” value (PDX-1) was “induced” and the “protection of cell viability in serum deprivation” value (INS-1 cells [6]) was “protects INS-1 cells from dying”.
